One test deals with T1, human NOXA1 SH3 (Homo sapiens, UniProt Q86UR1).
T1 construct: GST (N, cleaved yes); made in house; host or cells: Escherichia coli BL21 STAR
T1 sequence (Q86UR1 399-458 limits assumed): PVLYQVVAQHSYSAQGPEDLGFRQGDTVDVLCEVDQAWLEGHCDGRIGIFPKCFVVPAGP
The experiment in a line: ITC, binding to human NOXA1 SH3. To be noted: 18°C, 150 mM NaCl, 1 mM DTT, 50 mM HEPES, pH 7.4, peptide in syringe, human NOXA1 SH3 in cell, averaged over three to five experiments, read-out: K (Kd). As to the method: (§1) Complex formation between NOXO1, NOXA1 and p22^phox fragments or peptides were measured by isothermal titration calorimetry using a MicroCal VP-ITC calorimeter (MicroCal Inc., Northampton, USA). All proteins were dialysed against ITC buffer (150 mM NaCl, 1 mM DTT and 50 mM HEPES, pH 7.4) and performed at 18°C. All peptides were dissolved in ITC buffer. Typically, 20–40 µM of protein in the cell was titrated by stepwise injections of a total of 200–300 µM of the ligand. Heats of dilution were determined by titrating protein or peptide into ITC buffer and subtracted from the raw ITC data prior to analysis with the software, Origin version 7.0, assuming a single-site binding model. Data were averaged over three to five experiments.
(In general: ITC needs no label: the signal is the heat of the interaction.)

The target of test [1] is T2, tandem SH3 domains of human NOXO1 (Homo sapiens, UniProt Q8NFA2).
T2 construct: was titrated against the tandem SH3 domains as well as against the individual SH3A and SH3B domains; GST (N, cleaved yes); made in house; host or cells: Escherichia coli BL21 STAR
T2 sequence (Q8NFA2 157-290 isoform Q8NFA2-4): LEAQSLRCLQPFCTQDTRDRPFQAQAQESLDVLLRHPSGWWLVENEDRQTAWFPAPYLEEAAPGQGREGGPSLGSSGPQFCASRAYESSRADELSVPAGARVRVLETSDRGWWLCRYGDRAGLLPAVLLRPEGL
As to the kind of experiment: ITC, binding to human NOXO1 tandem SH3 domains. The following applies: 18°C; for Kd: pH 7.4, titrated against tandem SH3 domains. How it is done:
as §1

Test [2] concerns interaction between NOXO1 and p22^phox. The following applies: cited from earlier work. The text has this: In this study we provide evidence that the assembly of the NOX1 oxidase complex can be regulated through reversible protein-protein interactions. […] However, the inhibitory effect of the C-terminal tail is less pronounced in NOXO1 than in the homologous p47^phox subunit of the phagocytic oxidase, and may explain why the NOX1 system is capable of producing low levels of superoxide, in a constitutive ...

A further test relates to human NOX1. The following applies: ref [32]–[34]; cited from earlier work.
Test [3] concerns mouse proteins (NOX1 system). To be noted: ref [32]–[34]; cited from earlier work.

Where a SMILES comes first, the peptide text is derived from it. Where no end group is shown, it is not given here. A value given as a limit tells only on which side of the number the result lay.

What is called Kd is the concentration at which binding is half-saturated. TAPPPTVPTRPS [PeptideA-short]: the Kd on human NOXA1 SH3 is above 70 µM; in test [1] it was around 50 µM.

Take “ERRPRRQGRPRG [peptide corresponding to basic region, residues 347–359, of C-terminal tail of human NOXO1]”: in test [1] (pH 7.4, data not shown), the “binding to the tandem SH3 domains (qualitative)” value is “no binding was detected”.

Regarding `CCCCC/C=C\C/C=C\C/C=C\C/C=C\CCCC(=O)O` [arachidonic acid], the “effect on interaction between NOXO1 and p22^phox” value in test [2] is “could increase the interaction between NOXO1 and p22^phox”.

For `CC[C@H](C)[C@H](NC(=O)[C@H](C)NC(=O)CNC(=O)[C@@H]1CCCN1C(=O)[C@H](CO)NC(=O)[C@@H]1CCCN1C(=O)[C@H](CCCNC(=N)N)NC(=O)[C@@H](NC(=O)[C@@H]1CCCN1C(=O)[C@@H](NC(=O)[C@@H](NC(=O)[C@@H]1CCCN1C(=O)[C@@H]1CCCN1C(=O)[C@@H]1CCCN1C(=O)[C@H](C)NC(=O)[C@@H](N)[C@@H](C)O)[C@@H](C)O)C(C)C)[C@@H](C)O)C(=O)N[C@@H](CCC(N)=O)C(=O)N[C@@H](CO)C(=O)N[C@@H](CCCNC(=N)N)C(=O)N[C@@H](CS)C(=O)N[C@@H](CS)C(=O)N[C@H](C(=O)N[C@H](C(=O)N[C@H](C(=O)N[C@@H](CCCNC(=N)N)C(=O)N[C@@H](CCCNC(=N)N)C(=O)N[C@@H](C)C(=O)N[C@@H](CC(C)C)C(=O)N[C@@H](CCC(=O)O)C(=O)O)[C@@H](C)O)C(C)C)[C@@H](C)O` [PeptideA] (H-TAPPPTVPTRPSPGAIQSRCCTVTRRALE-OH), the Kd in test [1] is around 50 µM.

For `CCCCCCCCCCCCCC(=O)O[C@@H]1[C@@H](C)[C@@]2(O)[C@@H](C=C(CO)C[C@]3(O)C(=O)C(C)=C[C@@H]23)[C@@H]2C(C)(C)[C@]12OC(C)=O` [PMA], the “superoxide production by human NOX1” value in the test with human NOX1 is listed as “increased”. For the same compound, the “superoxide production with the mouse proteins” value in test [3] was “a similar increase could not be observed with the mouse proteins”.

(Values after article PMC2864300, “Regulation of NOXO1 Activity through Reversible Interactions with p22^phox and NOXA1” (PLoS ONE, 2010).)
